Reference: US10131652B2, “Pyrimidinyloxy benzene derivatives as herbicides” (E. I. DU PONT DE NEMOURS AND COMPANY, priority 2014, dated 2018)

Tests used:
Type in all cases: in vivo
[1] = test system: barnyardgrass (Echinochloa crus-galli); experiment: Test C flooded paddy test plant response; details: Flood, 250 g ai/ha; scale of 0 to 100 where 0 is no effect and 100 is complete control; 13 to 15 days
Procedure, shortened: (§1)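 Scale 0 (no effect) to 100 (complete control), assigned visually versus controls after 13–15 d greenhouse. Application: directly to paddy water, 3 cm flood depth kept constant, 2-leaf stage.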

[2] = test system: ducksalad (Heteranthera limosa); experiment: Test C flooded paddy test plant response; details: Flood, 250 g ai/ha; scale of 0 to 100 where 0 is no effect and 100 is complete control; 13 to 15 days
Procedure, shortened: as §1

rice (Oryza sativa) = experiment: Test C flooded paddy test plant response; details: Flood, 250 g ai/ha; scale of 0 to 100 where 0 is no effect and 100 is complete control; 13 to 15 days
Procedure, shortened: as §1

[3] = test system: small-flower umbrella sedge (Cyperus difformis); experiment: Test C flooded paddy test plant response; details: Flood, 250 g ai/ha; scale of 0 to 100 where 0 is no effect and 100 is complete control; 13 to 15 days
Procedure, shortened: as §1

[4] = test system: blackgrass (Alopecurus myosuroides); experiment: Test B postemergence plant response
Procedure, shortened: (§2)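 Weeds grown in loam soil/sand pots were sprayed postemergence at 2 to 10 cm height, one- to two-leaf stage. After approximately 10 days in greenhouse, injury was rated visually against untreated controls on a 0 (no effect) to 100 (complete control) scale; dash means no test result.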

[5] = test system: galium (catchweed bedstraw, Galium aparine); experiment: Test B postemergence plant response
Procedure, shortened: as §2

[6] = test system: barnyardgrass (Echinochloa crus-galli); experiment: Test B pre-/postemergence plant response
Excerpt: (§3) Seeds of plant species selected from bamyardgrass (Echinochloa crus-galli), kochia (Kochia scoparia), ragweed (common ragweed, Ambrosia elatior), Italian ryegrass (Lolium multiflorum), large (Lg) crabgrass (Digitaria sanguinalis), giant foxtail (Setaria faberii), momingglory (Ipomoea spp.), pigweed (Amaranthus retroflexus), velvetleaf (Abutilon theophrasti), wheat (Triticum aestivum), and corn (Zea mays) were planted into a blend of loam soil and sand and treated preemergence with a directed soil spray using test chemicals formulated in a non-phytotoxic solvent mixture which included a surfactant. At the same time, plants selected from these crop and weed species and also blackgrass (Alopecurus myosuroides), and galium (catchweed bedstraw, Galium aparine) were planted in pots containing the same blend of loam soil and sand and treated with postemergence applications of test chemicals formulated in the same manner. Plants ranged in height from 2 to 10 cm and were in the one- to two-leaf stage for the postemergence treatment. Treated plants and untreated controls were maintained in a greenhouse for approximately 10 days, after which time all treated plants were compared to untreated controls and visually evaluated for injury. Plant response ratings, summarized in Table B, are based on a 0 to 100 scale where 0 is no effect and 100 is complete control. A dash (-) response means no test result.

[7] = test system: giant foxtail (Setaria faberii); experiment: Test B pre-/postemergence plant response
Excerpt: as §3

corn (Zea mays) = experiment: Test B pre-/postemergence plant response
Excerpt: as §3

[8] = test system: Italian ryegrass (Lolium multiflorum); experiment: Test B pre-/postemergence plant response
Excerpt: as §3

kochia (Kochia scoparia) = experiment: Test B pre-/postemergence plant response
Excerpt: as §3

[9] = test system: pigweed (Amaranthus retroflexus); experiment: Test B pre-/postemergence plant response
Excerpt: as §3

[10] = test system: wheat (Triticum aestivum); experiment: Test B pre-/postemergence plant response
Excerpt: as §3

[11] = test system: ragweed (common ragweed, Ambrosia elatior); experiment: Test B pre-/postemergence plant response
Excerpt: as §3

[12] = 31 g ai/ha, Postemergence, 0 to 100 scale, 0 no effect, 100 complete control
[13] = 125 g ai/ha, postemergence, 0 to 100 scale, 0 no effect, 100 complete control
[14] = 31 g ai/ha, Preemergence, 0 to 100 scale where 0 is no effect and 100 is complete control
[15] = Preemergence, 125 g ai/ha, 0 to 100 scale where 0 is no effect and 100 is complete control
[16] = Postemergence, 31 g ai/ha, 0 to 100 scale (0 no effect, 100 complete control)
[17] = Preemergence, 125 g ai/ha, 0 to 100 scale (0 no effect, 100 complete control)
[18] = Postemergence, 500 g ai/ha, 0 to 100 scale (0 no effect, 100 complete control)
[19] = Preemergence, 500 g ai/ha, 0 to 100 scale where 0 is no effect and 100 is complete control

SMILES | Barnyardgrass plant response rating [1] | Ducksalad plant response rating [2] | Rice plant response rating (rice (Oryza sativa)) | Sedge, Umbrella plant response rating [3] | Plant response rating, Blackgrass [4, 13] | Plant response rating, Galium [5, 13] | Plant response rating, Barnyardgrass [6, 13] | Plant response rating, Foxtail, Giant [7, 13] | Plant response rating, Corn (corn (Zea mays); [13]) | Plant response rating, Ryegrass, Italian [8, 13] | Plant response rating, Kochia (kochia (Kochia scoparia); [13]) | Plant response rating, Pigweed [9, 13] | Plant response rating, Wheat [10, 13] | Plant response rating, Ragweed [11, 13] | Barnyardgrass plant response rating [6, 17] | Foxtail, Giant plant response rating [7, 17] | Ryegrass, Italian plant response rating [8, 17] | Kochia plant response rating (kochia (Kochia scoparia); [17]) | Pigweed plant response rating [9, 17] | Ragweed plant response rating [11, 17] | other results
Cn1cnc(-c2ccccc2Oc2ncc(Cl)cn2)n1 [Compound 115] | 0 | 0 | 0 | 0 | 0 | 0 | 0 | 0 | 0 | 0 | 0 | 0 | 0 | 0 |  |  |  |  |  |  | Plant response rating, Blackgrass [4, 12]: 0; Plant response rating, Galium [5, 12]: 0; Plant response rating, Barnyardgrass [6, 12]: 0; Plant response rating, Barnyardgrass [6, 14]: 0; Plant response rating, Barnyardgrass [6, 15]: 0; Plant response rating, Foxtail, Giant [7, 12]: 0; Plant response rating, Foxtail, Giant [7, 14]: 0; Plant response rating, Foxtail, Giant [7, 15]: 0; Plant response rating, Corn (corn (Zea mays); [12]): 0; Plant response rating, Ryegrass, Italian [8, 12]: 0; Plant response rating, Ryegrass, Italian [8, 14]: 0; Plant response rating, Kochia (kochia (Kochia scoparia); [12]): 0; Plant response rating, Kochia (kochia (Kochia scoparia); [14]): 0; Plant response rating, Kochia (kochia (Kochia scoparia); [15]): 0; Plant response rating, Pigweed [9, 12]: 0; Plant response rating, Pigweed [9, 14]: 0; Plant response rating, Wheat [10, 12]: 0; Plant response rating, Ragweed [11, 12]: 0; Plant response rating, Ragweed [11, 14]: 0
Clc1cnc(Oc2ccccc2-c2ccsc2)nc1 [Compound 231] | 0 | 65 | 0 | 70 | 0 | 20 | 10 | 10 | 0 | 0 | 40 | 40 | 0 | 0 | 10 | 10 | 0 | 0 | 20 | 0 | Plant response rating, Blackgrass [4, 16]: 0; Plant response rating, Galium [5, 16]: 0; Plant response rating, Barnyardgrass [6, 14]: 0; Plant response rating, Barnyardgrass [6, 16]: 0; Plant response rating, Foxtail, Giant [7, 14]: 0; Plant response rating, Foxtail, Giant [7, 16]: 0; Plant response rating, Corn (corn (Zea mays); [16]): 0; Plant response rating, Ryegrass, Italian [8, 14]: 0; Plant response rating, Ryegrass, Italian [8, 16]: 0; Plant response rating, Kochia (kochia (Kochia scoparia); [14]): 0; Plant response rating, Kochia (kochia (Kochia scoparia); [16]): 20; Plant response rating, Pigweed [9, 14]: 0; Plant response rating, Pigweed [9, 16]: 20; Plant response rating, Wheat [10, 16]: 0; Plant response rating, Ragweed [11, 14]: 0; Plant response rating, Ragweed [11, 16]: 0
Fc1ccc(-c2cc(C(F)(F)F)no2)c(Oc2ncc(Cl)cn2)c1 [Compound 124] | 0 | 80 | 0 | 85 | 30 | 100 | 20 | 20 | 10 | 0 | 80 | 90 | 0 | 20 | 30 | 100 | 10 | 60 | 100 | 10 | Plant response rating, Blackgrass [4, 12]: 0; Plant response rating, Barnyardgrass [6, 12]: 0; Plant response rating, Barnyardgrass [6, 14]: 0; Plant response rating, Foxtail, Giant [7, 12]: 0; Plant response rating, Foxtail, Giant [7, 14]: 20; Plant response rating, Corn (corn (Zea mays); [12]): 0; Plant response rating, Ryegrass, Italian [8, 14]: 0; Plant response rating, Kochia (kochia (Kochia scoparia); [14]): 10; Plant response rating, Pigweed [9, 14]: 40; Plant response rating, Ragweed [11, 14]: 0
FC(F)(F)c1csc(-c2ccccc2Oc2ncc(I)cn2)n1 [Compound 138] | 0 | 20 | 0 | 0 | 0 | 0 | 0 | 0 | 0 | 0 | 0 | 0 | 0 | 0 | 0 | 0 | 0 | 0 | 0 | 0 | Plant response rating, Blackgrass [4, 18]: 0; Plant response rating, Galium [5, 18]: 0; Plant response rating, Barnyardgrass [6, 18]: 0; Plant response rating, Barnyardgrass [6, 19]: 0; Plant response rating, Foxtail, Giant [7, 18]: 0; Plant response rating, Foxtail, Giant [7, 19]: 0; Plant response rating, Corn (corn (Zea mays); [18]): 0; Plant response rating, Ryegrass, Italian [8, 18]: 0; Plant response rating, Ryegrass, Italian [8, 19]: 0; Plant response rating, Kochia (kochia (Kochia scoparia); [18]): 0; Plant response rating, Kochia (kochia (Kochia scoparia); [19]): 0; Plant response rating, Pigweed [9, 18]: 0; Plant response rating, Pigweed [9, 19]: 0; Plant response rating, Wheat [10, 18]: 0; Plant response rating, Ragweed [11, 18]: 0; Plant response rating, Ragweed [11, 19]: 0
Cn1ccnc1-c1ccccc1Oc1ncc(Br)cn1 [Compound 152] | 0 | 0 | 0 | 0 | 0 | 0 | 0 | 0 | 0 | 0 | 0 | 0 | 0 | 0 | 0 | 0 | 0 | 0 | 0 | 0 | Plant response rating, Blackgrass [4, 18]: 0; Plant response rating, Galium [5, 18]: 0; Plant response rating, Barnyardgrass [6, 18]: 0; Plant response rating, Barnyardgrass [6, 19]: 0; Plant response rating, Foxtail, Giant [7, 18]: 0; Plant response rating, Foxtail, Giant [7, 19]: 0; Plant response rating, Corn (corn (Zea mays); [18]): 0; Plant response rating, Ryegrass, Italian [8, 18]: 0; Plant response rating, Ryegrass, Italian [8, 19]: 0; Plant response rating, Kochia (kochia (Kochia scoparia); [18]): 0; Plant response rating, Kochia (kochia (Kochia scoparia); [19]): 0; Plant response rating, Pigweed [9, 18]: 0; Plant response rating, Pigweed [9, 19]: 0; Plant response rating, Wheat [10, 18]: 0; Plant response rating, Ragweed [11, 18]: 0; Plant response rating, Ragweed [11, 19]: 0
